Test results from ChEMBL document CHEMBL5247646, “Discovery of 2-Aminopyrimidines as Potent Agonists for the Bitter Taste Receptor TAS2R14” (J Med Chem, 2023).

Biological target: T1, Taste receptor type 2 member 14 (Homo sapiens) (UniProt Q9NYV8)
T1 sequence (whole entry): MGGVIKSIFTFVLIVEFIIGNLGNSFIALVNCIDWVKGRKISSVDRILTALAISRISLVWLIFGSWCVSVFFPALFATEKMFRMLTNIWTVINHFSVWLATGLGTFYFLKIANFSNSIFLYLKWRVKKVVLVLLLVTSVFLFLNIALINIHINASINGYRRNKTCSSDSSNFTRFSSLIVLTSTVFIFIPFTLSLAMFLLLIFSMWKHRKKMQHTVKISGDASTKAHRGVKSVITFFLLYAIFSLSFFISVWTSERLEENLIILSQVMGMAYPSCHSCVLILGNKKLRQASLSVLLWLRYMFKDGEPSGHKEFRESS
Assay: Agonist activity at human TAS2R14 transfected in HEK293T cells assessed as IP1 accumulation at 30 uM measured after 150 mins by IP1 accumulation assay relative to flufenamic acid
Type: cell-based
Details: not given

Emax	SMILES
27%	O=C(O)c1cccc(Nc2cccc(C(F)(F)F)c2)c1

Same assay, conditions: filed as agonist

Emax	SMILES
59%	CN(c1cccc(C(F)(F)F)c1)c1ccccc1C(=O)O
64%	O=C(O)c1ccccc1Nc1cc(C#CC2CCCC2)cc(C(F)(F)F)c1

Biological target: T2, D(2) dopamine receptor (Homo sapiens, UniProt P14416)
Assay: Displacement of [3H]methylspiperone from human D2S receptor stably expressed in CHO cells by Cheng-Prusoff equation analysis
Type: cell-based
Details: not given

T2 sequence (P14416 whole entry): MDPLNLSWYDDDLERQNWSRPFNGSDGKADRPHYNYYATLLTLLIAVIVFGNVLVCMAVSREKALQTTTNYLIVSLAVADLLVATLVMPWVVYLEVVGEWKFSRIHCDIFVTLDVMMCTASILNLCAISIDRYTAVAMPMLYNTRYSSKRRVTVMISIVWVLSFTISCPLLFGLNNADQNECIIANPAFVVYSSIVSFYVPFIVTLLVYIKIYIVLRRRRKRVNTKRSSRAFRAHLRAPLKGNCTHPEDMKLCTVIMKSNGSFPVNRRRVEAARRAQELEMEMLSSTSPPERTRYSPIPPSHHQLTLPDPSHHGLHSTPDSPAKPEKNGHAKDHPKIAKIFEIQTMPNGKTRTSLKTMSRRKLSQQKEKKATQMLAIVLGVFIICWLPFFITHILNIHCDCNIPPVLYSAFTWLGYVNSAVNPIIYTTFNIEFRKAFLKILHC

SMILES	Ki
Cc1cc(C(F)(F)F)nc(Nc2ccccc2-c2nnn[nH]2)n1	7.3 µM

Biological target: T2, D(2) dopamine receptor
Assay: Displacement of [3H]methylspiperone from human D2L receptor stably expressed in CHO cells by Cheng-Prusoff equation analysis
Type: cell-based
Details: not given

SMILES	Ki
Cc1cc(C(F)(F)F)nc(Nc2ccccc2-c2nnn[nH]2)n1	16 µM

Biological target: T3, Alpha-2C adrenergic receptor (Homo sapiens, UniProt P18825)
T3 sequence (P18825 whole entry): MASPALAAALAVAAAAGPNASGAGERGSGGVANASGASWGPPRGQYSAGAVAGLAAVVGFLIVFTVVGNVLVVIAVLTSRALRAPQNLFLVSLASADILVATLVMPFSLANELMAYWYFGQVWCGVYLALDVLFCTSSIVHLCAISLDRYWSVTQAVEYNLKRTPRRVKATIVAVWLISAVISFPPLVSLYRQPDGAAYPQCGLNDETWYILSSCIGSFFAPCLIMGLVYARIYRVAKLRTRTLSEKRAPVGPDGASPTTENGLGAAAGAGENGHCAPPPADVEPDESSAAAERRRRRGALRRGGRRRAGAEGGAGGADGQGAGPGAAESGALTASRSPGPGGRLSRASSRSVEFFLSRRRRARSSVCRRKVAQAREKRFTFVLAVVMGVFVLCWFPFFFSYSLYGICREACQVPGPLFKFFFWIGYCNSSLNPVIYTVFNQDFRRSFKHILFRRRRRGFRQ
Assay: Displacement of [3H]RX821002 from human alpha2C receptor stably expressed in HEK293T cells by Cheng-Prusoff equation analysis
Type: cell-based
Details: not given

Ki	SMILES
17 µM	C#Cc1cc(Nc2ccccc2C(=O)O)cc(C(F)(F)F)c1

Biological target: T4, Muscarinic acetylcholine receptor M2 (Homo sapiens, UniProt P08172)
T4 sequence (P08172 whole entry): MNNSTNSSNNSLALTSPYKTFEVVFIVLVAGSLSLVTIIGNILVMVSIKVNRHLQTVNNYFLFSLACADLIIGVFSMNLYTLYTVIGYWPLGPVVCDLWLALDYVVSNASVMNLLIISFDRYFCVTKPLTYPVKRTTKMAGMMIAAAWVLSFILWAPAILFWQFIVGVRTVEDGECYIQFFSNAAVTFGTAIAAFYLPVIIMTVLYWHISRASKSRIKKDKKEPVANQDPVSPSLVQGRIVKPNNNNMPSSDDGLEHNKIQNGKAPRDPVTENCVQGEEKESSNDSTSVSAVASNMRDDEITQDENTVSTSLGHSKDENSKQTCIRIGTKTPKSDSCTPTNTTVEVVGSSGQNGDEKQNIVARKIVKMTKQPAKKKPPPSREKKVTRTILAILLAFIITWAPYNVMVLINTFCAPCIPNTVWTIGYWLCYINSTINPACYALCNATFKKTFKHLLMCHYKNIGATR
Assay: Displacement of [3H]NMS from human M2 receptor stably expressed in HEK293T cells by Cheng-Prusoff equation analysis
Type: cell-based
Details: not given

SMILES	Ki
Cc1cc(C(F)(F)F)nc(Nc2ccccc2-c2nnn[nH]2)n1	2300 nM

Biological target: T5, Taste receptor type 2 member 14 (Homo sapiens, UniProt Q9NYV8)
T5 sequence (Q9NYV8 whole entry): T1 sequence (whole entry)
Assay: Partial agonist activity at human TAS2R14 transfected in HEK293T cells assessed as IP1 accumulation measured after 150 mins by IP1 accumulation assay
Type: cell-based
Details: not given

EC50	SMILES
100 nM	FC(F)(F)c1cc(Nc2ccccc2-c2nnn[nH]2)cc(C(F)(F)F)c1

Biological target: T1, Taste receptor type 2 member 14 (Homo sapiens)
Assay: Agonist activity at human TAS2R14 transfected in HEK293T cells assessed as IP1 accumulation at 10 uM measured after 150 mins by IP1 accumulation assay relative to flufenamic acid
Type: cell-based
Details: filed as agonist

Emax	SMILES
52%	O=C(O)c1ccccc1Nc1ccnc(C(F)(F)F)c1

Biological target: D(3) dopamine receptor (Homo sapiens, UniProt P35462)
Assay: Displacement of [3H]methylspiperone from human D3 receptor stably expressed in HEK293T cells by Cheng-Prusoff equation analysis
Type: cell-based
Details: not given

Sequence of D(3) dopamine receptor (P35462 whole entry): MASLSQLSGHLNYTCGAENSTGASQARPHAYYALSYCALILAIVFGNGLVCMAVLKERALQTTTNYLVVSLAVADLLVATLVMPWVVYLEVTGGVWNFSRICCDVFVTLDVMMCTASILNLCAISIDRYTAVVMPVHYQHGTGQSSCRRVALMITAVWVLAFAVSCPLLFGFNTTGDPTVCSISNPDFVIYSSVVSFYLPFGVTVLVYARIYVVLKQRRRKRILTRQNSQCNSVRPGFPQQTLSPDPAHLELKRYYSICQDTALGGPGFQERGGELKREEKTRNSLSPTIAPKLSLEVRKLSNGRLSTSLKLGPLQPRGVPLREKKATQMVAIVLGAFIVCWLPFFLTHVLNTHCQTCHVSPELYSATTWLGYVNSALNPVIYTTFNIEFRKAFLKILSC

SMILES	Ki
Cc1cc(C(F)(F)F)nc(Nc2ccccc2-c2nnn[nH]2)n1	1100 nM

Biological target: T6, Alpha-2B adrenergic receptor (Homo sapiens, UniProt P18089)
T6 sequence (P18089 whole entry): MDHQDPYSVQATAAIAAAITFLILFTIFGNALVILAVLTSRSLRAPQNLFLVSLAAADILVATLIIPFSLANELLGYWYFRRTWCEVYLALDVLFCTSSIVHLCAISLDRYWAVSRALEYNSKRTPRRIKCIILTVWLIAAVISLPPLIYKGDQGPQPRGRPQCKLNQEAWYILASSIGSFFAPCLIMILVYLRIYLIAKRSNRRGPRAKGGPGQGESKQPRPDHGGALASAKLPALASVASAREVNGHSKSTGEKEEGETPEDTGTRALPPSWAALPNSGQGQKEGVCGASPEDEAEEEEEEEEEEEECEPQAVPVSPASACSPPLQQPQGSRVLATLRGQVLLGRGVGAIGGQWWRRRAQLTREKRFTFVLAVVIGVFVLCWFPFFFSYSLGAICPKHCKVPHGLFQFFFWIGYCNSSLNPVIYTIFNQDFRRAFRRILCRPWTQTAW
Assay: Displacement of [3H]RX821002 from human alpha2B receptor stably expressed in HEK293T cells by Cheng-Prusoff equation analysis
Type: cell-based
Details: not given

Ki	SMILES
16 µM	C#Cc1cc(Nc2ccccc2C(=O)O)cc(C(F)(F)F)c1

Biological target: T5, Taste receptor type 2 member 14
Assay: Agonist activity at human TAS2R14 transfected in HEK293T cells assessed as IP1 accumulation measured after 150 mins by IP1 accumulation assay
Type: cell-based
Details: not given

EC50	SMILES
640 nM	CC(C)(C)c1cc(C(F)(F)F)nc(Nc2ccccc2-c2nnn[nH]2)n1
300 nM	N#Cc1cc(C(F)(F)F)nc(Nc2ccccc2-c2nnn[nH]2)n1
420 nM	N#Cc1ccc(C(F)(F)F)cc1Nc1ccccc1C(=O)O
230 nM	O=C(O)c1ccccc1Nc1cc(Br)cc(C(F)(F)F)c1
150 nM	C#Cc1cc(Nc2ccccc2C(=O)O)cc(C(F)(F)F)c1
1400 nM	C#Cc1cc(C(F)(F)F)nc(Nc2ccccc2-c2nnn[nH]2)n1
750 nM	FC(F)(F)c1cc(I)nc(Nc2ccccc2-c2nnn[nH]2)n1
6800 nM	Oc1cc(C(F)(F)F)nc(Nc2ccccc2-c2nnn[nH]2)n1
640 nM	O=C(O)c1ccccc1Nc1cc(C(F)(F)F)ccc1Br
1800 nM	Cc1c(Nc2ccccc2C(=O)O)cccc1C(F)(F)F
1100 nM	FC(F)(F)c1nccc(Nc2ccccc2-c2nnn[nH]2)n1
170 nM	N#Cc1ccc(Nc2ccccc2C(=O)O)cc1C(F)(F)F
360 nM	FC(F)(F)c1ccnc(Nc2ccccc2-c2nnn[nH]2)c1
1600 nM	O=C(O)c1ccccc1Nc1nccc(C(F)(F)F)n1
190 nM	Cc1cc(Nc2ccccc2C(=O)O)cc(C(F)(F)F)c1
930 nM	O=C(O)c1ccccc1Nc1cccc(OC(F)F)c1
2100 nM	O=C(O)c1ccccc1Nc1cccc(C(F)(F)F)c1Br
1200 nM	O=C(O)c1ccccc1Nc1cncc(C(F)(F)F)c1
160 nM	FC(F)(F)c1ccnc(Nc2ccccc2-c2nnn[nH]2)n1
98 nM	FC(F)(F)c1cccc(Nc2ccccc2-c2nnn[nH]2)n1
950 nM	O=C(O)c1ccccc1Nc1cccc(Cl)c1
3500 nM	FC(F)(F)c1cc(Nc2ccccc2-c2nnn[nH]2)ccn1
540 nM	FC(F)(F)c1cc(Cl)nc(Nc2ccccc2-c2nnn[nH]2)n1
190 nM	O=C(O)c1ccccc1Nc1cccc(S(F)(F)(F)(F)F)c1
380 nM	CC#Cc1cc(Nc2ccccc2C(=O)O)cc(C(F)(F)F)c1
300 nM	O=C(O)c1ccccc1Nc1ccc(Br)c(C(F)(F)F)c1
180 nM	N#Cc1cc(Nc2ccccc2C(=O)O)cc(C(F)(F)F)c1
670 nM	O=C(O)c1ccccc1Nc1cccc(C(F)(F)F)n1
390 nM	Cc1ccc(C(F)(F)F)cc1Nc1ccccc1C(=O)O
330 nM	Cc1ccc(Nc2ccccc2C(=O)O)cc1C(F)(F)F

SMILES	EC50
Cc1cc(C(F)(F)F)nc(Nc2ccccc2-c2nnn[nH]2)n1	72 nM

Biological target: T1, Taste receptor type 2 member 14 (Homo sapiens)
Assay: Partial agonist activity at human TAS2R14 transfected in HEK293T cells assessed as IP1 accumulation measured after 150 mins by IP1 accumulation assay relative to control
Type: cell-based
Details: filed as partial agonist

Emax	SMILES
80%	FC(F)(F)c1cc(Nc2ccccc2-c2nnn[nH]2)cc(C(F)(F)F)c1
